One molecule from publication PMC10878790 (The Journal of Biological Chemistry, 2024) can be followed below.

Like-named read-outs stand apart in the source and are kept apart here.

The subject of series [1] is MDA-MB-231 cells. Kind of series: Wound healing assay. The format is cell-based. As to conditions: identical concentrations of D- and L-isomer. As for the experimental part: The wound healing assay was performed using two breast cancer cell lines, MDA-MB-231 and MCF-7, and two prostate cancer cell lines, PC-3 and DU-145, to evaluate the antimigratory capacity of the peptides. […] The cells were grown to approximately 80% confluency in 12-well tissue culture plates, and a cell-free area was created by scraping the monolayer. The peptides were added, and the cells were incubated at 37 °C with 5% CO2 for 24 h. Wound closure was assessed by imaging the wounds at 0 and 24 h, and the wound areas were quantified using ImageJ software (https://imagej.net/ij/). In the transwell invasion assay, MDA-MB-231 cells were serum starved for 4 h followed by a pretreatment with increasing concentrations of each peptide in a 0.1% serum-containing DMEM for 24 h. The cells were then trypsinized, resuspended in same media for the second treatment of peptides, and counted. Next, 40,000 cells were resuspended in 0.1% serum containing DMEM and added to the upper chamber of Transwell plates (Corning Life Sciences) with a polyethylene terephthalate membrane (6.4 mm diameter, 8 μm pore size). The bottom chambers were filled with DMEM containing 10% FBS as a chemoattractant. The transwell plates were incubated at 37 °C with 5% CO2 for 24 h to allow the invasion of cells through the membrane. The invaded cells on the lower side of the membrane were fixed with 4% paraformaldehyde for 15 min, followed by a PBS wash. The membrane inserts were further fixed with ice-cold methanol for 20 min and stained with 0.25% (w/v) crystal violet. After incubation, the noninvasive cells on the upper surface of the membrane were gently removed using a cotton swab. Random fields were chosen for imaging, and the number of invaded cells was counted using ImageJ software. The results were expressed as the average number of invaded cells compared with the control.

Series [2] relates to MDA-MB-231 cells. Kind of series: Western blot of MIEN1 signaling pathway proteins. The format is cell-based. The settings on record: mean values of immunoblot densitometry. The protocol:
Cells were exposed to the peptides and subjected to Western blot analysis with the indicated antibodies. […] Cytoplasmic and nuclear cell lysate extracts of EGF only and EGF plus peptide-treated cells were probed for p65 and p50. Lamin A/C and β-actin were used as nuclear and cytoplasmic loading control respectively. Densitometry was determined with immunoblots (N = 3) and normalized to total protein or β-actin for whole cell lysates and cytoplasmic fraction of peptide-treated MDA-MB-231 cells. In case of nuclear lysates, the immunoblots were normalized with Lamin A/C. Bar graphs are densitometric data (means ± SD). […] EGF concentration: (10 ng/ml); Peptide concentration: 90 μM. EGF, epidermal growth factor; MIEN1, migration and invasion enhancer 1; NF-κB, nuclear factor kappa B.
Western blot analysis was performed according to standard protocols to assess the effects of MIEN1-derived peptides and their analogs on MDA-MB-231 cells and DU-145 cells. Cell lysates were prepared using radioimmunoprecipitation assay buffer and quantified for protein content by bicinchoninic acid method. […] Protein blocking with 5% bovine serum albumin was followed by incubation with primary antibodies specific to various proteins at 4 °C for 8 to 10 h. The membrane was then washed three times in Tris Buffered Saline with Tween 20 and incubated with the appropriate secondary antibody. Protein bands were visualized using the Alpha Innotech chemiluminescent detection system. In case of MDA-MB-231 cells, cytoplasmic and nuclear extracts were isolated to investigate the effects of peptides and/or EGF stimulation. Prior to exposure to the cells, the test peptides (90 μM) were incubated with EGF (10 ng/ml) in media at 4 °C for 15 min. The untreated MDA-MB-231 cells received EGF alone at the same concentration. The isolation of cytoplasmic and nuclear fractions was performed using the Subcellular Protein Fractionation Kit for Cultured Cells from Thermo Fisher Scientific (cat #78840) following the manufacturer's guidelines. For Western blot experiments, 20 μg of purified cytoplasmic and nuclear fraction was used.
Densitometry analysis of Western blot data was conducted using the AlphaView-FluorChem HD2 software of the Alpha Innotech chemiluminescent detection system (https://www.cambridgescientific.com/product/alpha-innotech-fluorchem-hd2-gel-imaging-system). To quantify band intensities, a uniform rectangle was drawn around each band, and background subtraction was applied to determine the total pixel density for each lane. Further calculations, including the determination of the ratio of phosphorylated proteins to total proteins or other loading controls, were carried out using Microsoft Excel. […]

Series [3] can be described thus: in vitro. As to conditions: microsomes. As for the experimental part: An NADPH-regenerating system (1.7 mg/ml NADP, 7.8 mg/ml glucose-6-phosphate, 6 U/ml glucose-6-phosphate dehydrogenase in 2% w/v NaHCO3/10 mm MgCl2) was added for analysis of Phase I metabolism after heating both the regenerating solution and the sample tubes to 37 °C for 5 min in a 37 °C shaking water bath. The incubation was continued and at varying time points after addition of phase I cofactors, the reaction was stopped by the addition of 0.5 ml of acetonitrile containing IS and formic acid such that the final concentration of IS was 100 ng/ml and acid was 0.1%. Time 0 samples were stopped with the acetonitrile solution while still on ice prior to addition of the NADPH regenerating system and compound, which were subsequently added. The samples were incubated for 10 min at room temperature and then spun at 16,100g for 5 min in a microcentrifuge at 4 °C. The supernatant was analyzed by LC-MS/MS. The method described by McNaney et al. was used with modification for determination of metabolic stability half-life by substrate depletion ([59]). A “% remaining” value was used to assess the metabolic stability of a compound over time. The LC-MS/MS peak area of the incubated sample at each time point was divided by the LC-MS/MS peak area of the time 0 (T0) sample and multiplied by 100. The natural Log (LN) of the % remaining of compound was then plotted versus time (in min) and a linear regression curve was plotted going through y-intercept at LN (100).

Series [4] in a line: in vitro. The settings on record: plasma. The protocol: CD1 mouse plasma isolated using acidified citrate dextrose was purchased from BioIVT. Each peptide's dimethyl sulfoxide stock was then mixed into the plasma, resulting in a 2 μM final concentration. An aliquot was immediately collected for a zero time point and quenched with an equal volume of acetonitrile containing 0.2% formic acid and 200 ng/ml tolbutamide IS. […] Samples were withdrawn at specific intervals and processed similarly to the zero time point. The supernatant obtained after vortexing and centrifugation was subjected to LC-MS/MS analysis as previously detailed. A control incubation was performed using 0.9% NaCl (saline).

The conditions of series [5]: mouse, in vivo, iv, 5 mg/kg.
Series [6] can be described thus: in vivo. The settings on record: female, CD1, mouse, iv, 5 mg/kg.
The nature of series [7]: Pharmacokinetic studies in CD1 mice. The settings on record: mouse, in vivo, iv, 5 mg/kg.

On to `CC[C@@H](C)[C@@H](NC(=O)[C@@H](C)NC(=O)[C@@H](CC(C)C)NC(C)=O)C(=O)N[C@H](C)C(=O)N[C@@H](C(=O)N[C@H](CCCCN)C(N)=O)C(C)C` [D-LA3IK], for which the “decrease in cell migration compared to L counterpart” value in series [1] turned out to be 30.2%. Besides, in series [2], the “greater inhibition of FAK phosphorylation than L-peptide counterpart” value is listed as 34.2% and the “greater inhibition of SRC phosphorylation than L-peptide counterpart” value was determined as 48.8%. This molecule registered a fraction remaining at 2 h, 2 μM in series [3] (male, Institute of Cancer Research/CD-1, mouse, pH 7.5) of 100%. Besides, in series [3] (mouse), the half-life was more than 2 h. This molecule also showed an amount remaining at 24 h, 2 μM in series [4] (CD1, mouse) of 75%. Moreover, in series [4] (mouse), the half-life is more than 24 h. For the same molecule, in series [5], the AUC(0-t) is 3400 ng·h/mL, the peak level (Cmax) was 3570 ng/mL, the clearance worked out at 24.5 mL/min/kg and the half-life is 3.58 h. In addition, in series [6], the mean residence time (MRT) was 1.03 h, the Tmax came out at 4.8 min and the Vd was determined as 7.58 L/kg. Also, the Vd in series [7] was 1.57 L/kg.
